SMILES | melting point
Cc1cccc(C(=O)NCC(=O)O)c1 | 138 to 142 °C
CC(C)(C)c1ccc(S(=O)(=O)Cl)cc1 | 82 °C
CCOc1ccc(C=O)cc1OCC | 22 °C
O=S(=O)(c1ccc(O)cc1)c1ccc(O)cc1 | 248 °C
CCCCC=CC(=O)O | -19 °C
O=C(O)CCOc1ccc(F)cc1 | 84 to 86 °C
N#CCc1ccc(OCc2c(F)cccc2Cl)cc1 | 78 to 79 °C
O=C1C=CC(=O)[C@@H]2Cc3ccccc3C[C@H]12 | 127 to 128 °C
O=C(c1ccc(O)cc1)c1ccc(O)cc1 | 223 °C
COc1cc(CC(=O)O)cc(OC)c1 | 103 °C
COc1ccc(C(=O)c2coc(S(N)(=O)=O)c2)cc1 | 181 °C
O=C(Cl)c1cc2ccccc2n1S(=O)(=O)c1ccccc1 | 127 to 128 °C
CC(C)(C)c1nnc(NS(=O)(=O)c2ccccc2)s1 | 163 °C
CC(C)(C)C(=O)C1C(=O)c2ccccc2C1=O | 109 °C
Nc1c(Br)cc(Br)c(Cl)c1C(=O)O | 212 to 215 °C
O=Cc1cc(Br)cc(OC(F)(F)F)c1O | 46 °C
COc1ccc(C#N)cc1[N+](=O)[O-] | 148 to 151 °C
O=C(Cl)c1ccc2nsnc2c1 | 111 °C
CO[Si](OC)(OC)c1ccccc1 | -25 °C
CC(=O)/C=C(\C)c1ccc(-c2ccccc2)cc1 | 132 to 134 °C
ClCc1cc(-c2ccccc2)on1 | 48 to 49 °C
COC(=O)c1ccc(CCl)o1 | 32 to 36 °C
Oc1ccc(C#Cc2ccc(F)cc2)cc1 | 149 °C
NS(=O)(=O)c1cc2c(cc1C(F)(F)F)NC(Cc1ccccc1)NS2(=O)=O (stereo not drawn) | 222 °C

SMILES | melting point
O=C(Oc1ccccc1)c1c2ccccc2nc2ccccc12 | 188 to 192 °C
C1CCC2OCCOCCOC3CCCCC3OCCOCCOC2C1 (stereo not drawn) | 66 to 70 °C
CCOC(=O)CNc1nc(Cl)nc(NC(C)C)n1 | 110 °C
C#CCCCCN1C(=O)c2ccccc2C1=O | 70 °C
Nc1cc(N)c(/C=C/c2ccccc2)c(N)c1C=Cc1ccccc1 | 161 °C
CC(=O)Oc1c(-c2ccccc2)n(C(C)=O)c2cc([N+](=O)[O-])c(/C(Cl)=C/c3ccccc3)cc12 | 57 to 58 °C
C=C1C(=CC=C2CCCC3(C)C2CCC3C(C)CCCC(C)C)CC(O)CC1O (stereo not drawn) | 136 °C
O=C(O)c1cc(I)ccc1O | 196 to 201 °C
CCNCC | -50 °C
COC(=O)C1(C(=O)OC)Cc2c(C)cccc2C(=O)O1 | 100 °C
CC(=O)c1ccccc1NC=O | 65 to 68 °C
O=C1C=CC(=O)N1c1ccc(Cc2ccc(N3C(=O)C=CC3=O)cc2)cc1 | 155 to 159 °C
O=C1CC(=O)NCCNCCNCCNC(=O)CC(=O)NCCNCCNCCN1 | 199 to 202 °C
c1ccc(-c2nnc(NC3=NCCN3CN3CCCCC3)s2)cc1 | 133 to 134 °C
NS(=O)(=O)c1c(F)cccc1F | 190 °C
O=C(O)C1CCCCN1 (stereo not drawn) | 277 °C
CCOP(=S)(OCC)SCn1c(=O)oc2cc(Cl)ccc21 | 47.8 °C
CCN(CC)C(=O)c1ccc(O)c(OC)c1 | 95 °C
C=CCc1ccc2c(c1)OCO2 | 11.2 °C
CCC1C(C=NO)=NC(C)(C)N1O (stereo not drawn) | 163 to 164 °C
O=C(c1ccccc1)c1ccc(OCc2ccccc2)cc1 | 82 °C
COC1(OC)C2C=CC(C)(O2)C1C(=O)O (stereo not drawn) | 176 to 178 °C
c1ccc(-c2ccncn2)cc1 | 56 °C
CCN(CC(=O)O)C(=O)OC(C)(C)C | 88 °C

SMILES | melting point
O=C(O)CCSC1=CC(=O)C(SCCC(=O)O)=CC1=O | 230 to 236 °C
CCCCCCCCCCCCCCCCCl | 17.9 °C
CC(C)(C)NC(=O)C1CCC2CC34CCC(CC=C3C=C(O)C=O)C4CCC21C (stereo not drawn) | 257 °C
COc1ccc(C(=O)N=C=S)cc1 | 23 to 25 °C
CCOc1ccc2c(C)cc(=O)oc2c1 | 115 °C
O=c1[nH]c(=O)n(CCO)c2c1CCCC2 | 275 to 278 °C
CC(=O)/C(=C/Nc1ccccc1)Cc1ccccc1 | 132 °C
CC(=Cc1ccccc1)CC(N)=O | 133 °C
ICCCCCI | 9 °C
COC(=O)c1ccc2cc[nH]c2c1 | 79 °C
Oc1c(-c2ccccc2)cccc1-c1ccccc1 | 102 °C
Cc1nnc2sc(SCc3ccc(Cl)cc3)nn2c1=O | 171 to 172 °C
O=C(O)C(Br)c1ccccc1Cl (stereo not drawn) | 107 °C
Brc1cccc(-c2cc[nH]n2)c1 | 73 to 74 °C
CC(=O)Nc1ccccc1C(F)(F)F | 96 °C
Cc1cccc(C)c1N(C(=O)CCl)C1CCOC1=O (stereo not drawn) | 146 °C
CCC(=O)c1ccc(N)cc1 | 140 °C
COc1cc2c(cc1OC)C(c1ccc(C)cc1)N(C(C)=O)CC2 (stereo not drawn) | 183 to 185 °C
C=C1C2CCC3(O)C4(C)CCCC(C)(C(=O)OC5OC(CO)C(O)C(O)C5O)C4CCC3(C2)C1O (stereo not drawn) | 218 to 220 °C
COc1cccc(P(c2cccc(OC)c2)c2cccc(OC)c2)c1 | 115 °C
CC(C)(C)C(=O)Nc1ccccc1Cc1ccccc1 | 86 to 90 °C
O=C1C=CC(=O)c2cc3ccccc3cc21 | 223 to 226 °C
CC(=O)CC(c1ccco1)c1c(O)c2ccccc2oc1=O (stereo not drawn) | 124 °C
CC1(C)CC(=O)C2=C(C1)Nc1ccc3ccccc3c1C2c1ccc(O)cc1 (stereo not drawn) | 314 °C

SMILES | melting point
OCc1ccc(N2CCCCC2)nc1 | 70 to 71 °C
Cc1ccc(Br)nc1 | 43 °C
CN(C)C(=O)COC(=O)c1ccccc1 | 81.5 °C
C=CCc1c(O)cccc1C=O | 104 to 106 °C
CC1(C)c2ccccc2Oc2ccccc21 | 41.5 °C
Nc1nnc(C2CCC2)[nH]1 | 153 to 155 °C
COC(=O)c1ccc(Cl)cc1N | 67 °C
COc1ccc(C=Nc2ccc(C3=NNC(=O)CC3)cc2)cc1 | 213 to 215 °C
Cn1c(-c2ccccc2)cc2ccccc21 | 99 °C
CCOC(=O)c1c(-c2ccccc2)[nH]c2cc3[nH]c(-c4ccccc4)c(C(=O)OCC)c3cc12 | > 140 °C
Cc1n[nH]c(C)c1Cc1ccccc1 | 119 °C
Cc1ccc(CCl)c2ccccc12 | 58 to 60 °C
CCOC(=O)c1cc(-c2ccc(C)cc2)oc1C | 82 to 83 °C
CCOC(=O)[C@@H]1CC=CC[C@@H]1N (relative stereo) | 99 to 103 °C
Cc1cccc(N/N=C2/C(=O)N(c3ccccc3)N=C2C(F)(F)F)c1 | 161 °C
O=Cc1ccc(O)c(O)c1O | 163 °C
CC(=O)C1(O)CCC2C3CCC4CC(O)CCC4(C)C3CCC21C (stereo not drawn) | 265 °C
Cc1noc(-c2ccccc2C(=O)O)n1 | 152 to 153 °C
Cc1c(F)cccc1CC#N | 47 °C
BrCC(CBr)=C(CBr)CBr | 135 to 145 °C
CC(=O)c1ccc(N=C=S)cc1 | 82 to 85 °C

Source: a melting point compilation (Tetko et al.)
